PubChem BioAssay (NCI)
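Step 1: Grow cells in 96-well plates. Step 2: Expose to compound for 48 hours at 5 concentrations. Step 3: Interpolate endpoints linearly; if unreached, use highest concentration. TGI is the concentration that stops growth completely.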

How the values were obtained:
Assay in all cases: NCI tumour cell line growth inhibition, 48 h
[1] = system: HCT-15 colon
[2] = system: HS 578T breast
[3] = system: MCF7 breast
[4] = system: MDA-MB-231 breast
[5] = system: HOP-92 NSCLC
[6] = system: BT-549 breast
[7] = system: SK-OV-3 ovarian
[8] = system: MOLT-4 leukemia
[9] = system: MDA-N
[10] = system: EKVX NSCLC
[11] = system: HOP-62 NSCLC

| Compound | TGI [1] [µM] | TGI [2] [µM] | TGI [3] [µM] | TGI [4] [µM] | TGI [5] [µM] | TGI [6] [µM] | TGI [7] [µM] | TGI [8] [µM] | TGI [9] [µM] | TGI [10] [µM] | TGI [11] [µM] |
| --- | --- | --- | --- | --- | --- | --- | --- | --- | --- | --- | --- |
| O=C1c2cccnc2-c2nccc3c2c1nc1cc(Br)ccc13 | 0.25 | 0.942 | 0.083 | 0.876 | 2.02 | 1.23 | 0.706 | 0.854 | 0.732 | 2.52 | 0.362 |
| COc1ccc2c(c1)CCN1CCc3ccccc3CC21 (configuration not stated) | > 100 | > 100 | > 100 | > 100 | 68.3 | > 100 | > 100 | > 100 | > 100 | > 100 | > 100 |
| C=CCOc1ccc(C2(O)c3ccccc3C3=NCCCN32)cc1 (configuration not stated) | > 100 | > 100 | > 100 | > 100 | > 100 | > 100 | > 100 | > 100 | > 63.2 | > 100 | > 100 |
| Nc1[nH]nc2nc3ccc(C(F)(F)F)cc3nc12 | > 100 | > 100 | 31.1 | > 100 | 78 | > 100 | 52.7 | > 100 | > 100 | > 100 | 58.8 |
| CC(C)NC(=O)OCCN=c1c2ccccc2ccc2ccccc12 | > 100 | > 100 | > 100 | > 100 | 88 | > 100 | > 100 | 71.2 | > 100 | > 100 | > 100 |
| On1c(-c2ccccc2)nc2ccccc2c1=S | > 100 | > 100 | > 100 | > 100 | > 100 | > 100 | > 100 | 11.2 | > 100 | > 100 | > 100 |
| CN(C)c1ccc(C2SCC(=O)N2c2ccc(Oc3ccc(Cl)cc3)c(Cl)c2)cc1 (configuration not stated) | 55.8 | 40.4 | 89.3 | 43.3 | 45.8 | 48.2 | 60.4 | > 100 | 58.5 | 60.5 | 41 |
| O=C1O[C@H](c2ccc3c(c2)OCO3)[C@H]2CO[C@@H](c3ccc4c(c3)OCO4)[C@@H]12 | > 100 | > 100 | > 100 | > 100 | > 100 | > 100 | > 100 | > 100 | > 100 | > 100 | > 100 |
| CC12CCC(O)CC1CCC1C2CCC2(C)C(C(=O)CC(O)C(F)(F)F)CCC12 (configuration not stated) | > 100 | > 80 | > 100 | 98.2 | > 85.2 | > 100 | 79.5 | 43.6 | > 100 | 98.9 | > 95.1 |
| CC(=O)O[C@H]1CC[C@@]2(C)C(=CC[C@H]3[C@@H]4C[C@H](N5CCOCC5)[C@H](OC(C)=O)[C@@]4(C)CC[C@@H]32)C1 | > 100 | > 100 | > 100 | > 100 | > 100 | > 100 | > 100 | > 100 | > 100 | > 100 | > 100 |
| C[N+]12CCCCC1C(CN1C(=O)Cc3c4ccccc4c(c4ccccc34)CC1=O)CCC2 (configuration not stated) | > 100 | > 100 | > 100 | > 100 | > 100 | > 100 | > 100 | > 100 | > 100 | > 100 | > 100 |
| CCC1(C)C=Cc2c(cc(O)c3c(=O)c4ccccc4n(C)c23)O1 (configuration not stated) | > 10 | > 10 | > 10 | > 10 | > 10 | > 10 | > 10 | > 10 | > 10 | > 10 | > 10 |
| CC(=O)[C@@]1(O)CC[C@H]2[C@@H]3C[C@H](C)C4=CC(=O)C=C[C@]4(C)[C@@]3(F)[C@@H](O)C[C@@]21C | > 100 | > 100 | > 100 | > 100 | > 100 | > 100 | > 100 | > 100 | > 100 | > 100 | > 100 |
| C=C1C(=O)C=C[C@]2(C)CC[C@H]3C(=C)C(=O)O[C@@H]3[C@@H]12 | 13.8 | 48.8 | 13.3 | 11.7 | 7.62 | 9.85 | 21.2 | 3.52 | 16.6 | 8.7 | 6.36 |
| CN1COCc2c1ccc1cc3ccc4c(c3nc21)COCN4S(C)(=O)=O | > 100 | > 100 | > 100 | > 100 | > 100 | > 100 | > 100 | > 100 | > 100 | > 100 | > 100 |
| Cc1nc2sc3ccccc3n2c(=O)c1N=Nc1ccc(Cl)cc1 | > 100 | > 100 | > 100 | > 100 | > 100 | > 100 | > 100 | > 100 | > 100 | > 100 | > 100 |
| CC1=C(CO)C(=O)O[C@@H]([C@@H](CO)[C@H]2CCC3C4C[C@@H](O)[C@@]5(O)CC=CC(=O)[C@]5(C)C4CC[C@@]32C)C1 (some centres not stated) | > 100 | > 100 | > 100 | > 100 | > 100 | > 100 | > 100 | > 100 | > 100 | > 100 | > 100 |
